Experimental data reported in patent US20060183754A1, “Amide bridged piphenyl or biazaphenyl derivatives” (priority 2005, published 2006).

What was measured:
PPARα = target: T1, PPARα (Homo sapiens, UniProt Q07869); test: PPARα radioligand binding assay (SPA, GST-PPARα-LBD)
T1 construct: PPARα (aa 167 to 469); made in house; host or cells: E. coli BL21 (pLysS)
T1 sequence (Q07869 167-468 limits assumed): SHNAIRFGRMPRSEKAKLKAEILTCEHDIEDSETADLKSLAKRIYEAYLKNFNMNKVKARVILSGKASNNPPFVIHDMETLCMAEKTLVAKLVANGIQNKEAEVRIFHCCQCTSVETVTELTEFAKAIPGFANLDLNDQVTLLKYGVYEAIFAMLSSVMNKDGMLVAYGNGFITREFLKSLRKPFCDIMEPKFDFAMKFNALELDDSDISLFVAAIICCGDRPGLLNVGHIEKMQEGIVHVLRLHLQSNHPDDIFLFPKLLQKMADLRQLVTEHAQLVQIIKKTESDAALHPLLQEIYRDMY
Source text: (§1) Background information on the performed assays can be found in: Nichols J S et al. “Development of a scintillation proximity assay for peroxisome proliferator-activated receptor gamma ligand binding domain”, (1998) Anal. Biochem. 257: 112-119.
(§2) Full-length cDNA clones for humans PPARδ and PPARα and mouse PPARγ were obtained by RT-PCR from human adipose and mouse liver cRNA, respectively, cloned into plasmid vectors and verified by DNA sequencing. Bacterial and mammalian expression vectors were constructed to produce glutathione-s-transferase (GST) and Gal4 DNA binding domain proteins fused to the ligand binding domains (LBD) of PPARδ (aa 139 to 442), PPARγ (aa 174 to 476) and PPARα (aa 167 to 469). To accomplish this, the portions of the cloned sequences encoding the LBDs were amplified from the full-length clones by PCR and then subcloned into the plasmid vectors. Final clones were verified by DNA sequence analysis.
(§3) Induction, expression, and purification of GST-LBD fusion proteins were performed in E. coli strain BL21 (pLysS) cells by standard methods (Ref: Current Protocols in Molecular Biology, Wiley Press, edited by Ausubel et al.).
(§4) PPARα receptor binding was assayed in TKE50 (50 mM Tris-HCl, pH 8, 50 mM KCl, 2 mM EDTA, 0.1 mg/ml fatty acid-free BSA and 10 mM DTT). For each 96 well reaction an 140 ng equivalent of GST-PPARα-LBD fusion protein was bound to 10 μg SPA beads (PharmaciaAmersham) in a final volume of 50 μl by shaking. The resulting slurry was incubated for 1 h at RT and centrifuged for 2 min at 1300 g. The supernatant containing unbound protein was removed and the semidry pellet containing the receptor-coated beads was resolved in 50 μl of TKE. […] All binding assays were performed in 96 well plates and the amount of bound ligand measured on a Packard TopCount using OptiPlates (Packard). Nonspecific binding was determined in the presence of 10^−4 M unlabelled compound. […]

PPARγ = target: T2, PPARγ (Mus musculus, UniProt P37238); test: PPARγ radioligand binding assay (SPA, GST-PPARγ-LBD)
T2 construct: PPARγ (aa 174 to 476); made in house; host or cells: E. coli BL21 (pLysS)
T2 sequence (P37238 204-505): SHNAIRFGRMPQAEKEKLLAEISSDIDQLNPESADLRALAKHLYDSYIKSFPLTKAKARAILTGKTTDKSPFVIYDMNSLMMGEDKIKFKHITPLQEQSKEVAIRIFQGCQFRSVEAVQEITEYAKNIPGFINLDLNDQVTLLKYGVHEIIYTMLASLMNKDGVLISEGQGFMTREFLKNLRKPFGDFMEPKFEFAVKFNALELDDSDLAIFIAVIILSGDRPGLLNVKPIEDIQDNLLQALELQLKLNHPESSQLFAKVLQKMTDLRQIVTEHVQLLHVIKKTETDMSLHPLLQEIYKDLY
Source text: as §1, §2, §3
as §4, with “PPARγ” for “PPARα”, “GST-PPARγ-LBD” for “GST-PPARα-LBD”, “ul” for “μl”

PPARδ = target: T3, PPARδ (Homo sapiens, UniProt Q03181); test: PPARδ radioligand binding assay (SPA, GST-PPARδ-LBD)
T3 construct: PPARδ (aa 139 to 442); made in house; host or cells: E. coli BL21 (pLysS)
T3 sequence (Q03181 139-441 limits assumed): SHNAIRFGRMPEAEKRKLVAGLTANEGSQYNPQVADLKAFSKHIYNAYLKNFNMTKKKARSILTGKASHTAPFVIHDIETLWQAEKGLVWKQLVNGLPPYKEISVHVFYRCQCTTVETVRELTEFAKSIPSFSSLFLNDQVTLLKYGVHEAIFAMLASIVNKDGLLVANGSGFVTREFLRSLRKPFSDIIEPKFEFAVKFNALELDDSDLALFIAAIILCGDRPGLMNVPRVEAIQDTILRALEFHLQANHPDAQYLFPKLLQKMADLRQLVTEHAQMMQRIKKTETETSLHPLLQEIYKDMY
Source text: as §1, §2, §3
PPARδ receptor binding was assayed in HNM10 (50 mM Hepes, pH 7.4, 10 mM NaCl, 5 mM MgCl2, 0.15 mg/ml fatty acid-free BSA and 15 mM DTT). For each 96 well reaction a 500 ng equivalent of GST-PPARδ-LBD fusion protein and radioligand, e.g. 20000 dpm {2-methyl-4-[4-methyl-2-(4-trifluoromethyl-phenyl)-thiazol-5-yl-ditritiomethylsulfanyl]-phenoxy}-acetic acid, was bound to 10 μg SPA beads (PharmaciaAmersham) in a final volume of 50 μl by shaking. The resulting slurry was incubated for 1 h at RT and centrifuged for 2 min at 1300 g. […] Radioligand was added and the reaction incubated at RT for 1 h and scintillation proximity counting performed in the presence of test compounds was determined. All binding assays were performed in 96 well plates and the amount of bound ligand was measured on a Packard TopCount using OptiPlates (Packard). […]

IC50 (PPARα)	IC50 (PPARγ)	IC50 (PPARδ)	SMILES
420 nM	> 10000 nM	580 nM	Cc1cc(OC(C)C(=O)Nc2cccc(-c3ccc(C(F)(F)F)cc3)c2)ccc1OC(C)(C)C(=O)O (racemic) [Example 09, [rac]-2-Methyl-2-{2-methyl-4-[1-(4′-trifluoromethyl-biphenyl-3-ylcarbamoyl)-ethoxy)-phenoxy}-propionic acid]
24 nM	1080 nM	940 nM	Cc1cc(OCCNC(=O)c2cnc(-c3ccc(C(F)(F)F)cc3)nc2C2CC2)ccc1OC(C)(C)C(=O)O [Example 20, 2-[4-(2-{[4-Cyclopropyl-2-(4-trifluoromethyl-phenyl)-pyrimidine-5-carbonyl]-amino}-ethoxy)-2-methyl-phenoxy]-2-methyl-propionic acid]
8 nM	> 10000 nM	> 10000 nM	CC(C)(Oc1ccc(CCCC(=O)Nc2cnc(-c3ccc(C(F)(F)F)cc3)nc2C2CC2)cc1)C(=O)O [Example 16, 2-(4-{3-[4-Cyclopropyl-2-(4-trifluoromethyl-phenyl)-pyrimidin-5-ylcarbamoyl]-propyl}-phenoxy)-2-methyl-propionic acid]
